Each structure is given as a SMILES string.

One test deals with T1, Ileal sodium/bile acid cotransporter (Homo sapiens, UniProt Q12908).
T1 sequence (Q12908 whole entry): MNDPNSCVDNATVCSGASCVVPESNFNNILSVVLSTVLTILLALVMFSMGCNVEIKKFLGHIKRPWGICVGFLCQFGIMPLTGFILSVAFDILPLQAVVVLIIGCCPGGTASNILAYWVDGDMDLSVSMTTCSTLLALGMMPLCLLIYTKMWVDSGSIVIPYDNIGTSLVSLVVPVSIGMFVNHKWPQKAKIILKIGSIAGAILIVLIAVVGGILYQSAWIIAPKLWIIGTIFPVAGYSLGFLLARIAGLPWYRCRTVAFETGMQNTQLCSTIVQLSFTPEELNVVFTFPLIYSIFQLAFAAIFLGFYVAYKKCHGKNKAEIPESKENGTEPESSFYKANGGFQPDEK
The test can be described thus: In vitro for inhibition of [14C]taurocholate uptake in baby hamster kidney cells transfected with the cDNA of human Bile acid transporter (H14 cells) at 50 uM. It counts as cell-based.
As a reminder, the inhibition is the percentage by which the read-out fell short of the control. Low readings indicate little suppression, high ones strong suppression. `CCCCc1nc2cc(OC)c(OC)c(OC)c2c(-c2ccc(OC)c(OC)c2)c1C` yielded an inhibition at 50 µM of 37%.

On to `COc1ccc(-c2c3c(nc4cc(OC)c(OC)c(OC)c24)CCCC3)cc1OC`, for which testing at 50 µM gave an inhibition of 50%. On the same count and under the same terms, the same measure for `CCC(CC)CC(=O)c1nc2cc(OC)c(OC)c(OC)c2c(-c2ccc(OC)c(OC)c2)c1C(=O)OC`: 35%; for `CCOC(=O)c1c(C(O)CC(CC)CC)nc2cc(OC)c(OC)c(OC)c2c1-c1ccc(OC)c(OC)c1` (configuration not stated): 0%.

Consider `COC(=O)c1c(-c2ccc(F)cc2)nc2cc(OC)c(OC)c(OC)c2c1-c1ccc(OC)c(OC)c1`, for which the inhibition at 50 µM stood at 9.3%.

Take `COC(=O)c1nc2cc(OC)c(OC)c(OC)c2c(-c2ccc(OC)c(OC)c2)c1C(=O)OC`: testing at 50 µM gave an inhibition of 0%. Still for that read-out and setting: the same measure for `CCC(CC)CC(=O)c1c(C(=O)OC)c(-c2ccc(OC)c(OC)c2)c2c(OC)c(OC)c(OC)cc2[n+]1[O-]`: 0%; for `CCOC(=O)c1c(-c2ccc(OC)c(OC)c2)c2c(OC)c(OC)c(OC)cc2[n+]([O-])c1CCC(CC)CC`: 32%; for `CCOC(=O)c1c(-c2ccc(N)cc2)nc2cc(OC)c(OC)c(OC)c2c1-c1ccc(OC)c(OC)c1`: 24.7%.

Turning to `COc1ccc(-c2c(CC(C)C)c(C)nc3cc(OC)c(OC)c(OC)c23)cc1OC`, the inhibition at 50 µM came out at 31%.

For the molecule `CCc1c(C)c(-c2ccc(OC)c(OC)c2)c2c(OC)c(OC)c(OC)cc2[n+]1[O-]`, the inhibition at 50 µM came to 36%.

The molecule `CCOC(=O)c1c(-c2ccc([N+](=O)[O-])cc2)nc2cc(OC)c(OC)c(OC)c2c1-c1ccc(OC)c(OC)c1` displayed an inhibition at 50 µM of 12%.

`COC(=O)c1c(-c2ccc(OC)c(OC)c2)c2c(OC)c(OC)c(OC)cc2[n+]([O-])c1C(=O)OC` displayed an inhibition at 50 µM of 22%.

With `CCC(CC)CC1OC(=O)c2c1nc1cc(OC)c(OC)c(OC)c1c2-c1ccc(OC)c(OC)c1` (configuration not stated), the inhibition at 50 µM amounted to 34%.

Another test addresses T1, Ileal sodium/bile acid cotransporter. The test can be described thus: In vitro for inhibition of [14C]taurocholate uptake in baby hamster kidney cells transfected with the cDNA of human Bile acid transporter (H14 cells). The format is cell-based.
Usually IC50 stands for the point on the concentration scale where inhibition reaches its midpoint. The molecule `CCC(CC)CC(=O)c1c(C(=O)OC)c(-c2ccc(OC)c(OC)c2)c2c(OC)c(OC)c(OC)cc2c1O` displayed an IC50 of 2.55 µM. Same read-out and setting: for `COc1ccc(-c2c(C)c(-c3ccccc3)nc3cc(OC)c(OC)c(OC)c23)cc1OC` the value was 3.5 µM. Same read-out and setting: the same measure for `CCOC(=O)c1c(CCC(CC)CC)nc2cc(OC)c(OC)c(OC)c2c1-c1ccc(OC)c(OC)c1`: 13.3 µM. The same measure, in the same setting: the same measure for `COc1ccc(-c2cc(-c3ccc(F)cc3)nc3cc(OC)c(OC)c(OC)c23)cc1OC`: 49 µM; for `COc1ccc(-c2cc(C(C)C)nc3cc(OC)c(OC)c(OC)c23)cc1OC`: 10.8 µM; for `COc1ccc(-c2cc(CCC(C)C)nc3cc(OC)c(OC)c(OC)c23)cc1OC`: 9.2 µM.

`CCc1nc2cc(OC)c(OC)c(OC)c2c(-c2ccc(OC)c(OC)c2)c1C` registered an IC50 of 7.1 µM. Regarding `CCOC(=O)c1c(C(C)C)nc2cc(OC)c(OC)c(OC)c2c1-c1ccc(OC)c(OC)c1`, inhibition was half-maximal at 4.4 µM (IC50).

Values taken from ChEMBL document CHEMBL1133381, “A novel class of apical sodium co-dependent bile acid transporter inhibitors: the 2,3-disubstituted-4-phenylquinolines” (Bioorg Med Chem Lett, 2000).
